Results from article PMC10442857, “Cellular Uptake of a Fluorescent Ligand Reveals Ghrelin O-Acyltransferase Interacts with Extracellular Peptides and Exhibits Unexpected Localization for a Secretory Pathway Enzyme” (ACS Chemical Biology, 2023).
Read-outs that look alike come from different tables or passages of the source. Square brackets hold non-standard residues; d marks the D form. Peptide text beside a SMILES is read from it. * marks the point of attachment. 1Nal = N[C@@H](Cc1cccc2ccccc12)C(=O)O; X2 = O=C(c1ccc2cc(F)ccc2c1)*; Octanoyl = CCCCCCCC(=O)*; Dap = NC[C@H](N)C(=O)O; Inp = O=C(O)C1CCNCC1

Legend:
GHSR (GHS-R1a) [1] = molecular target: T1, GHSR (GHS-R1a) (Homo sapiens, UniProt Q92847); assay: biochemical; format: binding; conditions: for IC50: lower limit from test at 100 µM, read-out: IC50 against GHSR
T1 construct: expressed in transfected cells; host or cells: HEK 293 cells transfected with GHS-R1a (membrane suspension)
Description: Peptide binding affinity for the ghrelin receptor was determined using a competitive radioligand-displacement binding assay,[22] with details provided in the Supporting Information. […]
GHSR receptor binding assays. Peptide binding affinity for the ghrelin receptor was determined using a competitive radioligand-displacement binding assay.1 Assays were performed using GHS-R1a transfected HEK 293 cells as the receptor source and human His[125I]-ghrelin(1−28) (PerkinElmer Inc. NEX388010UC ) as the radioligand. Human ghrelin(1−28) was used as a reference to ensure the validity of the results. A suspension of membrane from HEK 293/GHS-R1a cells (100,000 cells per assay tube) were incubated with ghrelin(1−8) peptide analogues (at […]
ghrelin (15 pM per assay tube) in binding buffer (25 mM HEPES, 5 mM magnesium chloride, 1 mM calcium chloride, 2.5 mM EDTA, and 0.4% BSA, pH 7.4). The resulting suspension was incubated for 20 min under shaking (550 rpm) at 37 °C. Unbound [ 125I]-ghrelin was removed and the amount of [ 125I]-ghrelin bound to the membranes was measured by γ counter. IC 50 values were determined by nonlinear regression analysis to fit a four-parameter dose−response curve using Prism 6 (version 6.0c). All binding assays were performed in triplicate. […]

hGOAT = molecular target: T2, hGOAT (Homo sapiens, UniProt Q96T53); assay: hGOAT inhibition assay (octanoylation of GSSFLCAcDan by Sf9 membrane fraction expressing hGOAT, HPLC fluorescence); format: biochemical; conditions: read-out: IC50 against hGOAT
T2 construct: 3xHA (C); FLAG (C); His6 (C); made in house; host or cells: Sf9 insect cells (baculovirus), crude membrane fraction
T2 sequence (Q96T53 1-435): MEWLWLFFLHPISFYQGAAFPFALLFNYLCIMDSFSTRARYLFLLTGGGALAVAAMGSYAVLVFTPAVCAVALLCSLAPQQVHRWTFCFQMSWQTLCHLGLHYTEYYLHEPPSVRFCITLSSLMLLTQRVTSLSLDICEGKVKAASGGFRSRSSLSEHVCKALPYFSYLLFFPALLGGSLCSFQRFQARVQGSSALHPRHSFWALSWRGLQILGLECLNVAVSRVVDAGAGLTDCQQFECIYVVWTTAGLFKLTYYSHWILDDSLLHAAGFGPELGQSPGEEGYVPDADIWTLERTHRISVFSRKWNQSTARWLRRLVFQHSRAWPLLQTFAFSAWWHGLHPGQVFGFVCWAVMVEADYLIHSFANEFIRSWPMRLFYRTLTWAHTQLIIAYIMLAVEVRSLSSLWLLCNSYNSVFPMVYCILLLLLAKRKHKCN
Description: Assays were performed using previously reported protocols,[57],[58] as described in the Supporting Information. […]
hGOAT inhibition assays. Assays were performed using previously reported protocols.2-3 For each assay, membrane fraction from Sf9 cells expressing hGOAT was thawed on ice and homogenized by passage through an 18-gauge needle 10 times. Assays were performed with 50 µg of membrane protein, as determined by Bradford assay. Membrane fraction was pre-incubated with 1 µM methyl […]
arachidonyl fluorophosphonate (MAFP) and unlabeled peptide inhibitor or vehicle as indicated in 50 mM HEPES pH 7.0 for 30 minutes at room temperature prior to reaction initiation.4 All reactions were initiated by the addition of 1.5 µM GSSFLCAcDan and 300 µM octanoyl CoA.
Reactions were incubated for 30 minutes at room temperature under foil. All assays were stopped with the addition of 50 µL of 20% acetic acid in isopropanol, and solutions were clarified by protein precipitation with 16.7 µL of 20% trichloroacetic acid, followed by centrifugation (1,000 x g, 2 minutes). The supernatant was then analyzed using reverse-phase HPLC with fluorescence detection as previously described.2-3 Peak integrations for both substrate and product peaks were calculated using Chemstation for LC (Agilent Technologies). Data reported are the average of three independent determinations, with error reported as standard deviation.
For determination of IC50 values, the percent activity at each inhibitor concentration was calculated from HPLC integration data using equations 1 and 2: To determine an IC50 value for a given inhibitor, the plot of % activity versus [inhibitor] was fit to equation 3, with % activity0 denoting hGOAT activity in the presence of the vehicle alone. All reported IC50 values represent the average of a minimum of three independent trials.
(1) % activity = % peptide acylation in presence of inhibitor
% peptide acylation in absence of inhibitor
(2) % peptide octanoylation = Fluorescence of acylated peptide
Total peptide fluorescence (acylated and non-acylated)
(3) % activity = % activity * (1- [inhibitor] )

GHSR (GHS-R1a) [2] = molecular target: T1, GHSR (GHS-R1a); design: method as in Charron et al.[22]; conditions: ref Charron et al.[22]; read-out: IC50 against GHSR; cited from earlier work
Target sequence in this assay (Q92847 whole entry, species assumed): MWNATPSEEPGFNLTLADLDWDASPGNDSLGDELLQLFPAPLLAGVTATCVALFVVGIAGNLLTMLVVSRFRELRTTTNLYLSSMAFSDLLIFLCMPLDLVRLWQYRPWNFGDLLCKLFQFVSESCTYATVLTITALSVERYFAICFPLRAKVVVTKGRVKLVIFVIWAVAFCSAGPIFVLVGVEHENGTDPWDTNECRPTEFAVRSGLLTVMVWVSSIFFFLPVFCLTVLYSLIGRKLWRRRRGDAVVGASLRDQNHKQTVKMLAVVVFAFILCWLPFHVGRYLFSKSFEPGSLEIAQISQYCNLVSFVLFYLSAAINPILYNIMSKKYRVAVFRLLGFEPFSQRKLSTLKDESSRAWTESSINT

[3] = average of three independent trials ± one standard deviation

Row | IC50 (GHSR (GHS-R1a) [1]) [nM] | IC50 (hGOAT; [3]) [nM] | IC50 (hGOAT) [nM] | selectivity for GHSR binding over GOAT (GHSR (GHS-R1a) [1]; from IC50 values of Table 1) [fold] | SMILES | IC50 (GHSR (GHS-R1a) [2]) [nM]
1 | ≥ 100000 |  |  |  | CC(C)C[C@H](NC(=O)[C@H](Cc1ccccc1)NC(=O)[C@H](CN)NC(=O)[C@H](CO)NC(=O)CN)C(=O)N[C@@H](CO)C(=O)N1CCC[C@H]1C(=O)N[C@@H](Cc1ccc(O)cc1)C(N)=O [ligand 1, H-GS-Dap-FLSPY-NH2] (HELM PEPTIDE1{G.S.[NC[C@H](N[*:1])C(=O)[*:2]].F.L.S.P.Y.[am]}$$$$V2.0) | 
2 |  | 64 ± 21 |  |  | CCCCCCCC(=O)NC[C@H](NC(=O)[C@H](CO)NC(=O)CN)C(=O)N[C@@H](Cc1ccccc1)C(=O)N[C@@H](CC(C)C)C(=O)N[C@@H](CO)C(=O)N1CCC[C@H]1C(=O)N[C@@H](Cc1ccc(O)cc1)C(N)=O [ligand 2, H-GS-(C8-Dap)-FLSPY-NH2] (H-GS[Dap](Octanoyl)FLSPY-NH2) | 65
3 |  |  | > 100000 | > 100 | CC(C)C[C@H](NC(=O)[C@H](Cc1ccccc1)NC(=O)[C@H](CNC(=O)c1ccc2cc(F)ccc2c1)NC(=O)[C@H](CO)NC(=O)CN)C(=O)N[C@@H](CO)C(=O)N1CCC[C@H]1C(=O)N[C@@H](Cc1ccc(O)cc1)C(N)=O [ligand 3, H-GS-(6FN-Dap)-FLSPY-NH2] (H-GS[Dap](X2)FLSPY-NH2) | 9.9
4 | ≥ 100000 |  | > 100000 |  | CC(C)C[C@H](NC(=O)[C@H](Cc1ccccc1)NC(=O)[C@H](CN)NC(=O)[C@H](CO)NC(=O)C(C)(C)N)C(=O)N[C@@H](CO)C(=O)N1CCC[C@H]1C(=O)N[C@@H](Cc1ccc(O)cc1)C(N)=O [ligand 4, H-Aib-S-Dap-FLSPY-NH2] (HELM PEPTIDE1{[Aib].S.[NC[C@H](N[*:1])C(=O)[*:2]].F.L.S.P.Y.[am]}$$$$V2.0) | 
5 | ≥ 100000 |  | > 100000 |  | CC(C)C[C@H](NC(=O)[C@H](Cc1ccccc1)NC(=O)[C@H](CN)NC(=O)[C@H](CO)NC(=O)C1CCNCC1)C(=O)N[C@@H](CO)C(=O)N1CCC[C@H]1C(=O)N[C@@H](Cc1ccc(O)cc1)C(N)=O [ligand 5, H-Inp-S-Dap-FLSPY-NH2] (HELM PEPTIDE1{[O=C(C1CCNCC1)[*:2]].S.[NC[C@H](N[*:1])C(=O)[*:2]].F.L.S.P.Y.[am]}$$$$V2.0) | 
6 |  | 580 ± 60 |  |  | CCCCCCCC(=O)NC[C@H](NC(=O)[C@H](CO)NC(=O)CN)C(=O)N[C@@H](Cc1ccccc1)C(=O)N[C@@H](CC(C)C)C(=O)N[C@@H](CO)C(=O)N1CCC[C@H]1C(=O)N[C@@H](CCC(=O)O)C(N)=O [ligand 9, H-GS-(C8-Dap)-FLSPE-NH2] | 200
7 |  | 59 ± 7 |  |  | CCCCCCCC(=O)NC[C@H](NC(=O)[C@H](CO)NC(=O)CN)C(=O)N[C@@H](Cc1ccccc1)C(=O)N[C@@H](CC(C)C)C(=O)N[C@@H](CO)C(=O)N1CCC[C@H]1C(=O)N[C@@H](CC(N)=O)C(N)=O [ligand 10, H-GS-(C8-Dap)-FLSPN-NH2] (H-GS[Dap](Octanoyl)FLSPN-NH2) | 31.9
8 |  | 27 ± 8 |  |  | CCCCCCCC(=O)NC[C@H](NC(=O)[C@H](CO)NC(=O)CN)C(=O)N[C@@H](Cc1ccccc1)C(=O)N[C@@H](CC(C)C)C(=O)N[C@@H](CO)C(=O)N1CCC[C@H]1C(=O)N[C@H](C(N)=O)[C@@H](C)O [ligand 11, H-GS-(C8-Dap)-FLSPT-NH2] (H-GS[Dap](Octanoyl)FLSPT-NH2) | 3.3
9 | ≥ 100000 |  |  |  | CC(C)C[C@H](NC(=O)[C@H](Cc1ccc2ccccc2c1)NC(=O)[C@H](CN)NC(=O)[C@H](CO)NC(=O)CN)C(=O)N[C@@H](CO)C(=O)N1CCC[C@H]1C(=O)N[C@H](C(N)=O)[C@@H](C)O [ligand 13, H-GS-Dap-Nal-2-LSPT-NH2] (HELM PEPTIDE1{G.S.[NC[C@H](N[*:1])C(=O)[*:2]].[O=C([C@H](Cc1ccc2ccccc2c1)N[*:1])[*:2]].L.S.P.T.[am]}$$$$V2.0) | 
10 |  |  | > 100000 |  | CC(C)C[C@H](NC(=O)[C@H](Cc1cccc2ccccc12)NC(=O)[C@H](CNC(=O)c1ccc2cc(F)ccc2c1)NC(=O)[C@H](CO)NC(=O)C1CCNCC1)C(=O)N[C@@H](CO)C(=O)N1CCC[C@H]1C(=O)N[C@H](C(N)=O)[C@@H](C)O [ligand 14] (H-[Inp]S[Dap](X2)[1Nal]LSPT-NH2) | 
